# Measured values: patent US20150315218A1, “SALTS OF PRODRUGS OF PIPERAZINE AND SUBSTITUTED PIPERIDINE ANTIVIRAL AGENTS” (Bristol-Myers Squibb Company, priority 2004, published 2015)
# Counter-ions that a name gives are not always drawn. Like-named read-outs stand apart in the source and are kept apart here.
# Tests used:
# [1] = Effect of food on oral absorption of IVa in dogs after Iab or IVa capsules; type: in vivo, dog; conditions: for AUC / Cmax / Tmax / half-life: dog, po, 20 mg/kg
# Method: To study the effect of food on the oral absorption of IVa after administration of Iab and IVa, these two compounds were administered in capsules as solid to a group of three dogs in a cross-over fashion under overnight fasting and fed conditions. There was a one-week washout period between each study. Iab was administered at 200 mg per dog (ca 20 mg/kg) of IVa equivalent; IVa was administered in a clinical capsule formulation at 200 mg per dog (ca 20 mg/kg). In the studies where the dogs were fed, the following meal was prepared: 2 slices of bacon, 2 eggs, 2 pieces of toast with butter and jelly, 4 oz. hash browns and 8 oz. of whole milk. After homogenization using a laboratory blender, the meal was equally divided into five portions and kept frozen. Before the study, the meals were thawed and each dog was fed one portion.
# [2] = Stability of prodrug in Tris-HCl buffer
# Method: The stability of Iab was also evaluated, as described above, in Tris-HCl buffer (0.1 M, pH 7.5). The stability of Ibb was also evaluated, as described above, in Tris-HCl buffer (0.1 M, pH 7.5). The stability of Icb was also evaluated, as described above, in Tris-HCl buffer (0.1 M, pH 7.5).
# [3] = Stability of prodrug in fresh EDTA blood (dog)
# Method: (§3) The stability of Iab was studied in fresh blood and serum from rat, dog, monkey and human (n=2). The blood was collected in vacutainers containing K2EDTA (Becton Dickinson, Franklin Lakes, N.J.). The serum was collected in vacutainers containing no anticoagulant. Iab was incubated at a starting concentration of approximately 10 μM for 60-90 min at 37° C. Serial samples were taken at the pre-determined times. Aliquots of blood samples (200 μL) were first mixed with 100 μL of water followed by 400 μL of acetonitrile. The serum samples (50 μL) were added into microtainers containing K2EDTA (Becton Dickinson, Franklin Lakes, N.J.) followed by the addition of 100 μL of acetonitrile. The supernatant was analyzed for both Iab and IVa by LC/MS/MS. The stability of Ibb was studied in fresh blood and serum from rat, dog, monkey and human (n=2). The blood was collected in vacutainers containing K2EDTA (Becton Dickinson, Franklin Lakes, N.J.). The serum was collected in vacutainers containing no anticoagulant. Ibb was incubated at a starting concentration of approximately 15 μM for 90 min at 37° C. Serial samples were taken at the pre-determined times. Aliquots of blood samples (200 μL) were first mixed with 100 μL of water followed by 400 μL of acetonitrile. The serum samples (50 μL) were added into microtainers containing K2EDTA (Becton Dickinson, Franklin Lakes, N.J.) followed by the addition of 100 μL of acetonitrile. […] The stability of Icb was studied in fresh blood and serum from rat, dog, monkey and human (n=2). The blood was collected in vacutainers containing K2EDTA (Becton Dickinson, Franklin Lakes, N.J.). The serum was collected in vacutainers containing no anticoagulant. Icb was incubated at a starting concentration of approximately 10 μM for 90 min at 37° C. Serial samples were taken at the pre-determined times. Aliquots of blood samples (200 μL) were first mixed with 100 μL of water followed by 400 μL of acetonitrile. The serum samples (50 μL) were added into microtainers containing K2EDTA (Becton Dickinson, Franklin Lakes, N.J.) followed by the addition of 100 μL of acetonitrile.
# [4] = Stability of prodrug in fresh EDTA blood (human); conditions: Human EDTA blood
# Method: as §3
# [5] = Stability of prodrug in fresh EDTA blood (monkey); conditions: Monkey EDTA blood
# Method: as §3
# [6] = molecular target: T1, human placental alkaline phosphatase (ALP) (Homo sapiens, UniProt P05187); test: Hydrolysis of prodrug in human placental ALP solutions; type: in vitro ADME; conditions: human placental ALP solution, 37°C, 120 min, read-out: t1/2 (min) of prodrug disappearance
# T1 construct: To study the hydrolysis of lab in a purified form of human ALP, Iab was incubated in human placental ALP solutions; host or cells: human placenta (inferred from the name and from 'ALP derived from humans')
# T1 sequence (P05187 23-506 limits assumed): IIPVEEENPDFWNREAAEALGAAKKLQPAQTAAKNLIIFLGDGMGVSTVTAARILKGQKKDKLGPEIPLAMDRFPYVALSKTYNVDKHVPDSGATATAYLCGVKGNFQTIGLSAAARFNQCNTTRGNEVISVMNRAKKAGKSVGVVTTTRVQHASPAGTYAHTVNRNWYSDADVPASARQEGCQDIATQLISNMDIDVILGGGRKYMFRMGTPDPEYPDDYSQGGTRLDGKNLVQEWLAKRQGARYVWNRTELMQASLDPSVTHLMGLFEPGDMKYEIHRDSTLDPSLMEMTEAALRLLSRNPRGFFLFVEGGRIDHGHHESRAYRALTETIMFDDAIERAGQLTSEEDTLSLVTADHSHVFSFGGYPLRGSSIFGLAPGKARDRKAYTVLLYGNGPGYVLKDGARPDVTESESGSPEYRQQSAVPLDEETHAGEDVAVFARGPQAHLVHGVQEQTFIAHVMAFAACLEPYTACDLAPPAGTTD
# Method: (§1) Solid human placental ALP was obtained from Sigma (P-3895, St. Louis, Mo.). […] Solutions of 100 and 10 units/L were obtained by serial dilution. Iab was incubated in the 10, 100 and 1000 units/L solutions (n=2) at 37° C. for 2 hr. The starting concentration of Iab in the incubation was 10 μM. Aliquots of 100 μL samples were taken at pre-determined times and added into K2EDTA microtainers followed by the addition of 200 μL of acetonitrile.
# as §1, with “Ibb” for “Iab”
# as §1, with “Icb” for “Iab”, “acetonitrile. The supernatant was analyzed for both Icb and IVe by LC/MS/MS.” for “acetonitrile.”
# rat hepatocytes = test: Hydrolysis of prodrug in hepatocytes (rat); type: in vitro ADME
# Method: (§2) The in vitro intrinsic clearance of Ibb in hepatocytes (Clint) was calculated as follows: Clint(μL/min/million cells)=Rate/CE where Rate is the rate of metabolism in hepatocytes (pmol/min/million cells), and CE is the concentration of Ibb in the incubation. The in vitro intrinsic clearance of Icb in hepatocytes (Clint) was calculated as follows: Clint(μL/min/million cells)=Rate/CE where Rate is the rate of metabolism in hepatocytes (pmol/min/million cells), and CE is the concentration of Icb in the incubation.
# human hepatocytes = test: Hydrolysis of prodrug in hepatocytes (human); type: in vitro ADME
# Method: as §2
# in vitro [7] = conditions: rat, serum
# Method: as §3
# in vitro [8] = conditions: dog, serum
# Method: as §3
# in vitro [9] = conditions: monkey, serum
# Method: as §3
# [10] = in vivo, dogs, IVa Clinical Form Capsules, Fasting
# [11] = in vivo, dogs, IVa Clinical Form Capsules, Fed
# [12] = plasma, IVa after Iab dry-filled capsules, Fasting
# [13] = plasma, IVa after Iab dry-filled capsules, Fed
# [14] = dogs, IVa Clinical Form Capsules (20 mg/kg)
structure (smiles),measurement,setting,value
"COc1ncc(OC)c2c(C(=O)C(=O)N3CCN(C(=O)c4ccccc4)CC3)c[nH]c12 [IVa, N-(benzoyl)-N′-[(4,7-dimethoxy-6-azaindol-3-yl)-oxoacetyl]piperazine]",AUC,"[1]; in vivo, dogs, IVa Clinical Form Capsules (20 mg/kg), Fed",96 ± 10 µM·h
same,Cmax,[1]; [10],1.2 ± 0.22 µM
same,Tmax,[1]; [10],3.3 ± 1.2 h
same,Cmax,[1]; [11],11 ± 0.99 µM
same,Tmax,[1]; [11],4 h
same,Cmax,[1]; [12],70 ± 12 µM
same,Tmax,[1]; [12],2 h
same,half-life,[1]; [12],4.2 ± 0.42 h
same,Cmax,[1]; [13],130 ± 102 µM
same,Tmax,[1]; [13],1.5 ± 0.87 h
same,half-life,[1]; [13],3.2 ± 1 h
same,AUC,"[1]; plasma, IVa in dogs after Iab dry-filled capsules (20 mg/kg of IVa equivalent), Fasting, n = 3",414 ± 70 µM·h
same,AUC,"[1]; plasma, IVa in dogs after Iab dry-filled capsules (20 mg/kg of IVa equivalent), Fed",422 ± 57 µM·h
same,AUC,"[1]; plasma, dogs, IVa Clinical Form Capsules (20 mg/kg), Fasting, n = 3",11 ± 1.4 µM·h
same,half-life,"[1]; plasma, dogs, IVa Clinical Form Capsules, Fasting",5.3 ± 2.7 h
same,half-life,"[1]; plasma, dogs, IVa Clinical Form Capsules, Fed",8 ± 3.1 h
same,improvement in AUC and Cmax (exposure) in fed vs fasted dogs,"[1]; dogs receiving IVa clinical capsule, high fat meal",9 fold
same,AUCtot Fed/Fasting Ratio,[1]; [14],9.0 ± 2.2
same,Cmax Fed/Fasting Ratio,[1]; [14],9.1 ± 0.92
same,Iab / IVa Formed,"[2]; Tris-HCl buffer (0.1 M, pH 7.5), 37°C, 0 min",0.011 µM
same,% IVa Formed (of starting concentration of Iab),"[2]; Tris-HCl buffer, 0 min",0.11%
same,% IVa Formed (of starting concentration of Iab),"[2]; Tris-HCl buffer, 20 min",0.081%
same,Iab / IVa Formed,"[2]; Tris-HCl buffer, 20 min",0.008 µM
same,% IVa Formed (of starting concentration of Iab),"[2]; Tris-HCl buffer, 40 min",0.076%
same,Iab / IVa Formed,"[2]; Tris-HCl buffer, 40 min",0.008 µM
same,% IVa Formed (of starting concentration of Iab),"[2]; Tris-HCl buffer, 60 min",0.088%
same,Iab / IVa Formed,"[2]; Tris-HCl buffer, 60 min",0.009 µM
same,% IVa Formed (of starting concentration of Iab),"[3]; Dog A EDTA blood (Table 15), 0 min",0.30%
same,% IVa Formed (of starting concentration of Iab),"[3]; Dog A EDTA blood (Table 15), 20 min",2.4%
same,% IVa Formed (of starting concentration of Iab),"[3]; Dog A EDTA blood (Table 15), 40 min",4.1%
same,% IVa Formed (of starting concentration of Iab),"[3]; Dog A EDTA blood (Table 15), 60 min",6.2%
same,% IVa Formed (of starting concentration of Iab),"[3]; Dog A EDTA blood (repeat), 0 min",0.63%
same,% IVa Formed (of starting concentration of Iab),"[3]; Dog A EDTA blood (repeat), 15 min",2.3%
same,% IVa Formed (of starting concentration of Iab),"[3]; Dog A EDTA blood (repeat), 30 min",3.4%
same,% IVa Formed (of starting concentration of Iab),"[3]; Dog A EDTA blood (repeat), 45 min",4.8%
same,% IVa Formed (of starting concentration of Iab),"[3]; Dog A EDTA blood (repeat), 60 min",6.1%
same,% IVa Formed (of starting concentration of Iab),"[3]; Dog B EDTA blood, 0 min",0.68%
same,% IVa Formed (of starting concentration of Iab),"[3]; Dog B EDTA blood, 15 min",2.0%
same,% IVa Formed (of starting concentration of Iab),"[3]; Dog B EDTA blood, 30 min",3.5%
same,% IVa Formed (of starting concentration of Iab),"[3]; Dog B EDTA blood, 45 min",4.5%
same,% IVa Formed (of starting concentration of Iab),"[3]; Dog B EDTA blood, 60 min",5.8%
same,% IVa Formed (of starting concentration of Iab),[4]; 0 min,0.55%
same,Iab / IVa Formed,[4]; 0 min,0.061 µM
same,% IVa Formed (of starting concentration of Iab),[4]; 15 min,0.59%
same,Iab / IVa Formed,[4]; 15 min,0.067 µM
same,% IVa Formed (of starting concentration of Iab),[4]; 30 min,0.50%
same,Iab / IVa Formed,[4]; 30 min,0.057 µM
same,% IVa Formed (of starting concentration of Iab),[4]; 45 min,0.65%
same,Iab / IVa Formed,[4]; 45 min,0.073 µM
same,% IVa Formed (of starting concentration of Iab),[4]; 60 min,0.75%
same,Iab / IVa Formed,[4]; 60 min,0.084 µM
same,% IVa Formed (of starting concentration of Iab),[5]; 0 min,0.13%
same,Iab / IVa Formed,[5]; 0 min,0.011 µM
same,% IVa Formed (of starting concentration of Iab),[5]; 20 min,0.28%
same,Iab / IVa Formed,[5]; 20 min,0.024 µM
same,% IVa Formed (of starting concentration of Iab),[5]; 40 min,0.48%
same,Iab / IVa Formed,[5]; 40 min,0.041 µM
same,% IVa Formed (of starting concentration of Iab),[5]; 60 min,0.56%
same,Iab / IVa Formed,[5]; 60 min,0.048 µM
"COc1cnc(-n2cnc(C)n2)c2c1c(C(=O)C(=O)N1CCN(C(=O)c3ccccc3)CC1)cn2COP(=O)(O)O [Icb, [3-[(4-benzoylpiperazin-1-yl)(oxo)acetyl]-4-methoxy-7-(3-methyl-1H-1,2,4-triazol-1-yl)-1H-pyrrolo[2,3-c]pyridin-1-yl]methyl dihydrogen phosphate, 2-amino-2-(hydroxymethyl)propane-1,3-diol salt (1:1)]",half-life at 10 μM,"[6]; pH 7.5, ALP Activity 10 Units/L",250 min
same,half-life at 10 μM,"[6]; pH 7.5, ALP Activity 100 Units/L",29 min
same,half-life at 10 μM,"[6]; pH 7.5, ALP Activity 1000 Units/L",2.4 min
same,hydrolysis in the presence of hepatocytes,rat hepatocytes,hydrolyzed
same,hydrolysis in the presence of hepatocytes,human hepatocytes,hydrolyzed
same,half-life at 10 μM,in vitro [7],0.7 h
same,half-life at 10 μM,in vitro [8],2.6 h
same,half-life at 10 μM,in vitro [9],0.5 h
